# Source: patent US20150352075A1, “Treatment of Alzheimer's and Cognitive Impairment With Andrographolides” (INNOBIOSCIENCE, LLC, priority 2013, published 2015)
# Like-named read-outs stand apart in the source and are kept apart here.
# Assays:
# [1] = tested on: APPswe/PS-1 double transgenic mice; assay: LTP by TBS in hippocampal CA1 slices from treated transgenic mice; type: in vivo; settings: slices from both sets (7- and 12-month-old) of treated APPswe/PS-1 mice
# [2] = tested on: APPswe/PS-1 double transgenic mice; assay: Slot blot of Aβ oligomers (A11 antibody) in hippocampus of treated mice; type: in vivo
# [3] = tested on: APPswe/PS-1 double transgenic mice; assay: Memory flexibility test (modified Morris Water Maze); type: in vivo; settings: 7-month-old APPswe/PS-1 mice, 2.0 mg/kg IP three times per week, four weeks, vs Tg control
# [4] = tested on: Wnt/β-catenin pathway in cultured rat hippocampal neurons; assay: Wnt/β-catenin pathway activation in cultured hippocampal neurons (western blot, immunofluorescence); type: cell-based
# Protocol: Primary culture of rat hippocampal neurons. Rat hippocampal cultures were prepared as previously described (Arrazola et al, 2009). On day 3 of culture, hippocampal cells were treated with […] 1-b-Darabinofuranosylcytosine (AraC) during 24 h to reduce the number of proliferating non-neuronal cells. […] PCR-ARRAY. RNA from hippocampal neurons was extracted using Trizol. Quantification and purity of RNA preparations were checked by absorbance using Nanodrop ND-2000. Only preparations with a 260/280 nm ratio ≧1.8, a 260/230 nm ratio ≧1.7 and no sign of RNA degradations, verified by agarose gel electrophoresis with Gel Red™ were used. Genomic DNA was degraded. Using RT2First-Strand cDNA Synthesis kit (SuperArray), 1 ng total RNA was reverse transcribed and then real-time PCR was performed by adding cDNA directly to PCR Master Mix, containing SYBR Green and ROX. The mixtures were then aliquoted into a 96-well PCR array plates, which profiles the expression of 84 Wnt target genes from rat. The PCR was run on ABI StepOnePlus, with 1 cycle of 10 min at 95° C. followed by 40 cycles of 15s at 95° C. and 1 min at 60° C. Cycle threshold (Ct) values were calculated for all the genes present on the array (Schmittgen & Livak, 2008). Treatment of neuronal cultures. Primary hippocampal cultures of neurons 14 DIV were washed twice in neurobasal medium and maintained for 1 hour. Next ANDRO (10 μM) and 6-BIO (10 μM) were added to different time periods.
# Following a time-course treatment, neurons were washed with cold PBS and harvested in 600 μL of cold homogenization buffer (10 mM HEPES pH 7.9; 1.5 mM MgCl2; 10 mM KCl; 1 mM DTT). The cells were disrupted by 20 passed, back and forth, through a syringe of 1mL. Lysates were centrifuged for 6 minutes at 700 g at 4° C. and the supernatant was removed. The precipitate was washed in 100 μL of buffer (20 mM HEPES pH=7.9; 420 mM NaCl; 1.5 mM MgCl2; 0.2 mM EDTA; 1 mM DTT; 25% glicerol) and centrifuged again to generate nuclear fraction. Cytosolic fractions were generated from the supernatantat 100.000 g […] 4° C. Both buffers were supplemented with protease inhibitors and serine-phosphatase. Nuclear and cytosolic fractions were subsequently subjected to western blotting.
# The samples were dissected on ice and immediately frozen in liquid nitrogen or processed has previously detailed (Inestrosa et al, 2011). Briefly, tissues were homogenized in RIPA buffer (10 mM Tris-Cl, pH 7.4, EDTA 5 mM, 1% NP-40, 1% sodium deoxycholate, and 1% SDS) supplemented with a protease inhibitor mixture (1 mM PMSF, 2 μg/mL aprotinin, 1 μg/mL pepstatin and 10 μg/mL benzamidine) and phosphatase inhibitors (25 mMNaF, 100 mM Na3VO4, 1 mM EDTA and 30 μM Na4P207) using a Potter homogenizator and then passed sequentially through different caliber syringes. Protein samples were centrifuged at 14000 rpm at 4° C. twice for 15 min. Protein concentration was determined using the BCA Protein Assay Kit (Pierce). Samples were resolved by […] 10% SDS-PAGE and transferred to a PVDF membrane. The reactions were followed by incubation with anti-mouse, anti-goat or anti-rabbit IgG peroxidase conjugated (Pierce, Rockford, Ill.) and developed using an ECL kit (Western Lightning Plus ECL, PerkinElmer).
# Hippocampal neurons were seeded onto poly-L-lysine-coated cover slips in 24-well culture plates at a density of 5×10^4 cells per well, as described previously (Arrazola et al, 2009; Chacon et al, 2008). A mouse monoclonal anti-b-catenin was used. Cells were extensively washed with PBS and then incubated with Alexa 488-conjugated anti-mouse IgG for 1 h at room temperature. Cells were mounted in mounting medium and analyzed in a Carl-Zeiss Confocal Laser Microscope.
# [5] = molecular target: T1, Immunoprecipitated GSK-3β from hippocampus of wild-type mice (Mus musculus, UniProt Q9WV60); assay: Luminometric GSK-3β activity assay; type: biochemical
# T1 construct: the hippocampus of two month-old wild-type mice were lysed in immunoprecipitation buffer; from tissue; host or cells: hippocampus of two-month-old wild-type mice (immunoprecipitated with anti-GSK-3β antibody, Santa Cruz)
# T1 sequence (Q9WV60 whole entry): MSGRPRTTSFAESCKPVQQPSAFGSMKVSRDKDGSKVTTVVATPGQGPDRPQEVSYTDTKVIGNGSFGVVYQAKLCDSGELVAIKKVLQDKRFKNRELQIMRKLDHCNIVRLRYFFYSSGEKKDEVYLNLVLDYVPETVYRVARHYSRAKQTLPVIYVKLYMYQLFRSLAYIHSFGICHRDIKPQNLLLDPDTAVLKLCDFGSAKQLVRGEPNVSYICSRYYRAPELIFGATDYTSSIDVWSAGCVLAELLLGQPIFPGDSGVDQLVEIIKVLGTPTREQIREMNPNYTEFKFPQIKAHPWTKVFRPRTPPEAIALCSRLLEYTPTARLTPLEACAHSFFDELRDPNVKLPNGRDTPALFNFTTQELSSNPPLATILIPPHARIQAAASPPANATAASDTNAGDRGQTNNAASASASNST
# Protocol: The immunoprecipitation was performed as previously described (Garrido et al, 2002). Briefly, the hippocampus of two month-old wild-type mice were lysed in immunoprecipitation buffer (25 mM HEPES pH 7.4, 125 mMNaCl, 25 mMNaF, 1 mM EDTA, 1 mM EGTA, 1% NP-40) including phosphatase inhibitors (1 mM NaVO3 and 200 nM okadaic acid) and the protease inhibitor cocktail described above. 200 μg of total proteins from lysate were precleared by using protein G-Sepharose beads (Santa Cruz Biotechnology) for 1 h at 4° C. and then were incubated with anti-GSK-3β antibody (Santa Cruz Biotechnology) and new protein G beads for 4 h at 4° C. The immunocomplexes were finally pelleted and washed three times with cold immunoprecipitation buffer.
# IC50 of ANDRO was determined by a luminometric GSK-3β activity assay. […] Briefly, ANDRO was tested at different concentrations and diluted in kinase buffer containing final concentrations of: 40 mM Tris pH 7.5; 20 mM MgCl2; 0.1 mg/ml BSA. […] The enzymatic reaction was stopped after 10 min of incubation to room temperature by adding 50 μl Kinase Glo (Promega, Madison, USA). The luminometric signal was allowed to stabilize for 10 min and the measured with a Luminometer TURNER DESIGNS model TD-2020.
# [6] = hippocampal neurons, ANDRO 10 μM
# [7] = hippocampal neurons, different concentrations for 6 h
structure (smiles),measurement,setting,value
"C=C1CC[C@@H]2C(C)(CO)C(O)CC[C@@]2(C)C1C/C=C1/C(=O)OCC1O (stereo in doubt) [ANDRO, 3-(2-(Decahydro-6-hydroxy-5-(hydroxymethyl)-5,8a-dimethyl-2-methylenenaphthyl)ethylidene)dihydro-4-hydroxyfuran-2(3H)-one]",LTP induction in CA3-CA1 transmission,[1],have the property to induce a LTP that is maintained for 1 h
same,level of Aβ oligomers (A11 slot-blot),[2]; 7 month-old APPswe/PS-1 mice,did not show significant changes
same,levels of Aβ-oligomers (A11 slot blot),[2]; FIG. 3G mice (legend: old APPswe/PS-1),did not show significant changes
same,number of trial to criterion of learning,[3],reduction in the number of trial to criterion of learning
same,β-catenin levels by immunofluorescence,"[4]; 5 μM for 6 h, neurons at 14 DIV",increased β-catenin levels
same,time of maximum increase of the inhibited form of GSK-3β,[4]; [6],6 h
same,time of peak accumulation of cytoplasmic and nuclear β-catenin,[4]; [6],9 h
same,accumulation of β-catenin,[4]; [7],accumulation of β-catenin in a concentration-dependent manner
same,active form of GSK-3β (phospho-Tyr-216),[4]; [7],decrease in the active form (phosphor-Tyr-216)
same,inhibited form of GSK-3β (phospho-Ser-9),[4]; [7],increase in the inhibited form of the enzyme (phospho-Ser-9)
same,IC50,"[5]; 25 μM pGS-2 peptide substrate, 10 μM ATP, preincubation 10 min, read-out: inhibition constant (IC50) of GSK-3β activity",5.58 µM
same,GSK-3β inhibition in the presence of DTT,[5]; 0.5 mM DTT,neither prevents the inhibition generated by ANDRO
same,IC50,"[5]; different concentrations of ATP, read-out: IC50 using different concentrations of ATP",~5.58 µM
same,IC50 at increased substrate concentration,[5]; different concentrations of the substrate,increase in the IC50 of ANDRO
